{
  "source": "paper PMC3726599",
  "about": "“A Metabolically-Stabilized Phosphonate Analog of Lysophosphatidic Acid Attenuates Collagen-Induced Arthritis” (PLoS ONE, 2013)",
  "key": {"[1]": {"system": "plasma LPA levels", "assay": "In vivo plasma LPA and LPC levels (HPLC-MS/MS)", "parameters": "species or system mouse", "conditions": "10 mg/kg i.p.", "description": "BrP-LPA, LPA species (C14:0, C16:0, C18:0, C18:1 and C20:4) and LPC species (C14:0, C16:0, C18:0, C18:1 and C20:0) were measured in plasma with HPLC-ESI/MS/MS using RSLCnano system (Ultimate 3000) coupled in-line with an LTQ Orbitrap XL mass spectrometer (Thermo Scientific, Waltham, MA, USA). BrP-LPA and lipid (LPA, LPC) extraction from plasma was performed on ice according to the Folch method with minor modifications. Plasma samples (50 ul) were mixed with 950 ul PBS prior to extraction and spiked with the internal standard mix (17:1 LPA/LPC). Samples were extracted under neutral conditions with 4 ml of ice-cold CHCl3/CH3OH (2/1, v/v) followed by 2 ml of PBS-saturated ice-cold CHCl3/CH3OH (2/1, v/v). Each extraction step was followed by a 60 s vortex and a 1 min centrifugation step in a bench-top clinical centrifuge in a cold room at 4°C at 3,000 rpm. The lower chloroform organic phases from both neutral extraction steps were pooled and kept for LPC measurement. The remained aqueous phase was chilled on ice for 10 min and extracted twice with ice-cold acidified with acetic acid CHCl3/CH3OH (2/1, v/v) as above. The lower organic phases were pooled, neutralized to pH 6–7 (checked with pH paper as above) on ice and kept for LPA, BrP-LPA measurements. The kept neutral lower organic phase of neutral extraction and the neutralized acidified lower organic phase were evaporated to dryness. The resulting residues were resuspended in 0.15 ml of isopropanol and after brief vortex mixing the solution was transferred to the auto sampler vial. Recovery of LPA species was between 60% and 95%. Recovery of BrP-LPA was 70% and the recovery of LPC species was between 80% and 100%. The Relative Standard Deviation (RSD) was less than 7% from the plasma fortified with three different concentrations (0.1, 0.5 and 1 μΜ) of LPAs, (0.1, 1 and 10 μΜ) of BrP-LPA and (0.5, 5 and 50 μΜ) of LPCs. Analysis was performed using a Phenomenex (Phenomenex, Torrance, CA, USA) Luna Silica column (2–250 mm, 5 μm particle size) using a binary gradient program consisting of isopropanol:hexane:100 mM NH4CO2H(aq) 58:40:2 (mobile phase A) and isopropanol:hexane:100 mM NH4CO2H(aq) 50:40:10 (mobile phase B). The mobile phase was delivered at a flow rate of 0.3 ml/min and the total run time was 50 min/sample. […] The precursor ion mass was used for the quantification while lipid identity was confirmed by precursor ion fragmentation using collision induced dissociation (CID). […]\nBrP-LPA was administered intraperitoneally (IP) at 10 mg/kg in water to 6–8 week old female mice. […] Plasma samples were then analysed for plasma ATX activity and BrP-LPA/LPA/LPC levels with the TOOS activity assay and HPLC-MS/MS respectively. […]"}, "[2]": {"system": "orthotopic breast cancer xenograft model", "parameters": "method as in PMID 19509223", "conditions": "in vivo; cited from earlier work"}, "[3]": {"system": "collagen induced arthritis (CIA)", "assay": "Collagen induced arthritis (CIA) in DBA/1 mice", "format": "in vivo, mouse", "description": "CIA in DBA/1 mice was induced by immunization with collagen type II emulsified in complete Freund's adjuvant essentially as previously described, [43]. Mice were assessed for disease clinical signs two to three times per week. Clinical signs of arthritis were determined using the following scoring system: 0: no evidence of erythema and swelling; 1: erythema and mild swelling confined to the […] or ankle joint; 2: erythema and mild swelling extending from the ankle to the […]; 3: erythema and moderate swelling extending from the ankle to metatarsal joints; 4: erythema and severe swelling encompassing the ankle, foot and digits, or ankylosis of the limb.\nParaffin-embedded joint tissue samples were sectioned and stained with hematoxylin and eosin as previously described, [44]. Arthritic histopathology in mice was assessed (in a blinded fashion from 3 independent examiners) using a semi-quantitative scoring system as previously described for CIA in a DBA/1 (H-2^q) background. 0: no detectable pathology; 1: hyperplasia of the synovial membrane and presence of polymorphonuclear infiltrates – mild tendonitis may be present; 2: pannus and fibrous tissue formation and focal subchondrial bone erosion: 3: cartilage destruction and bone erosion in multiple foci; 4: extensive cartilage destruction and bone erosion- bone outline structure lost. Presented results refer to an average score of all four joints.\nTo examine the therapeutic potential of targeting the ATX/LPA axis in RA, BrP-LPA was injected intraperitoneally twice a week (following immunization boost; Fig. 4A), in groups of mice undergoing the development of collagen induced arthritis (CIA).\nA. Schematic representation of immunization and drug administration schemes. DBA/1 mice subjected to CIA were treated intraperitoneally with vehicle, BrP-LPA (10 mg/kg), or dexamethasone (Dex, 3 mg/kg) twice a week. B–C. […] Data are pooled from two different experiments (n = 10). […] Joint sections were assessed histologically in a blinded manner by three independent examiners. Data are shown as mean joint values per mouse ± SD. […] Levels of CII-specific Abs were determined by ELISA in mouse sera."}, "[4]": {"conditions": "10 mg/kg i.p. twice a week, DBA/1 mice"}},
  "data": [
    {"molecule": "CCCCCCCCCCCCCCCC(=O)OC[C@@H](O)CC(Br)P(=O)(O)O", "note": "(stereo partly drawn) [BrP-LPA, 1-bromo-3(S)-hydroxy-4-(palmitoyloxy)butyl-phosphonate]", "values": [
      {"measurement": "plasma LPC levels", "setting": "[1]", "result": "remain unchanged"},
      {"measurement": "production of LPA species in plasma", "setting": "[1]", "result": "inhibited the production of all LPA species tested except from 14:0 LPA"},
      {"measurement": "reduction of total plasma LPA levels", "setting": "[1]; 1 hour post administration", "result": 82, "unit": "%"},
      {"measurement": "LPA levels, % of normal initial levels", "setting": "[1]; sixteen hours post administration", "result": "60–70%"},
      {"measurement": "tumor regression", "setting": "[2]", "result": "cause tumor regression in vivo"},
      {"measurement": "development of arthritis (number of arthritic limbs per mouse)", "setting": "[3]; [4]", "result": "development of arthritis in significantly fewer mice"},
      {"measurement": "severity per arthritic limb", "setting": "[3]; [4]", "result": "reduced severity per arthritic limb"},
      {"measurement": "histopathological analysis of the joints", "setting": "[3]; 10 mg/kg i.p. twice a week, H&E", "result": "marked decreased inflammation and synovial hyperplasia"},
      {"measurement": "gross physiology / systemic side effects", "setting": "[3]; 10 mg/kg i.p. twice a week, data not shown", "result": "no appreciable alternation of gross physiology"},
      {"measurement": "levels of anti-collagen antibodies", "setting": "[3]; ELISA in mouse sera", "result": "did not interfere with the levels of anti-collagen antibodies"},
      {"measurement": "BrP-LPA levels in joint tissue versus liver tissue and plasma", "setting": "[3]; data not shown", "result": "persist for longer in joint tissue"},
      {"measurement": "LPA (or LPC) levels in plasma or joint tissue at end of monitoring", "setting": "[3]; three days after the last injection, data not shown", "result": "no changes in LPA (or LPC) levels were detected"}
    ]}
  ]
}
